Measured values published in patent publication US20240424152A1, “AGENTS, COMPOSITIONS, AND METHODS FOR CANCER DETECTION” (The Johns Hopkins University, priority 2021, published 2024).
Entries after “also recorded” stand apart in the source; their conditions may differ. No end group written: not given here. *: point of attachment. NOTA = O=C(O)CN1CCN(CC(=O)O)CCN(CC(=O)*)CC1

Experiments:
[1] = test system: MDA-MB-231 tumors; assay: In vivo PET imaging in mice xenografted with MDA-MB-231 breast tumors; details: NOG mice, MDA-MB-231 xenograft, intravenous, 30 min post tracer injection; FIG. 2
Protocol: All animal studies were carried out per regulations set forth and approved by the Johns Hopkins Animal Care and Use Committee at the Johns Hopkins Molecular Imaging Service Center. Female, 6-8 weeks old, immunodeficient (NOG) mice were inoculated with MDA-MB-231 (2 million) cells in 100 μL of Hank's balanced salt solution in the top mammary fat pad. Tumors averaging 200-300 mm^3 (typically 14 days after inoculation) were used for in vivo imaging and ex vivo biodistribution studies.
For PET imaging, mice were intravenously injected with 9-10 MBq (240-270 μCi) of the radiolabeled peptide in 200 μL of saline. Whole body PET imaging (2 beds; 15 min per bed) was carried out using a SEDCAL SuperArgus small animal PET/CT scanner 30 min post tracer injection. Following PET image acquisition, a CT scan (512 projections) was obtained on the same system for anatomical co-registration. PET data were reconstructed using the 3-dimensional ordered-subsets expectation maximization (3D-OSEM) algorithm and corrected for dead time and radioactive decay. Final data visualization and image generation was carried out using the Amira (FEI) software. Quantitative in vivo image analysis was done in AMIDE 1.0.5 (SourceForge) using ellipsoid region-of-interest volume integrations. Percentage of injected dose per cubic centimeter of tissue (% ID/cc) was calculated based on an external calibration factor obtained from a known quantity of radioactivity.

[2] = test system: human triple negative breast cancer cell line, MDA-MB-231; assay: Cellular uptake of 18F-labeled peptide with blocking by unlabeled peptide; type: cell-based; details: MDA-MB-231 cells, 74 KBq 18F-labeled peptide, 37° C., blocking with 10-fold non-radioactive peptide; FIG. 1
Protocol: Prepared peptides were first analyzed in vitro using the human triple negative breast cancer cell line, MDA-MB-231. In brief, cells were detached using non-enzymatic buffer and 0.5 million cells per tube will be incubated with 74 KBq (2 μCi) of ^18F-labeled peptide in 100 μL phosphate-buffered saline (PBS) at 37° C. Experiments were done in triplicate and repeated three times to ensure reproducibility. Blocking was carried out using a 10-fold molar equivalence of the corresponding non-radioactive peptide analogue. The integrity of the radiolabeled compounds and their extent of decomposition was analyzed by RP-HPLC.

Row | Substance | accumulation in breast tumors (PET) [1] | tumor uptake on PET compared to Pep61 [1] | cellular uptake [2]
1 | A-D-K-P-D-M-G-E-I-A-S-F-D-K(NOTA) (ADKPDMGEIASFDK(NOTA); also: 18F label) [Pep62, tested 18F-labeled] | clear accumulation in breast tumors; also recorded: Accumulation and visualization of both peptides in breast tumors | higher and more uniform uptake compared to Pep61 | taken up by MDA-MB-231 cells in a specific manner
2 | A-D-K(NOTA)-P-D-M-G-E-I-A-S-F-D-K (ADK(NOTA)PDMGEIASFDK; also: 18F label) [Pep61, tested 18F-labeled] | clear accumulation in breast tumors; also recorded: Accumulation and visualization of both peptides in breast tumors | – | taken up by MDA-MB-231 cells in a specific manner
